Results published in patent publication US10167279B2 (NOVARTIS AG, priority 2014, dated 2019).

Legend:
[1] = target: C-Raf FL (Homo sapiens (Human), UniProt P04049, Y340E/Y341E); assay: In vitro Raf activity determination (Alpha Screen, phospho-MEK), C-Raf FL (full length, Y340E/Y341E); format: biochemical; settings: ATP 1 μM; 60 min pre-incubation; 1 hour reaction; column head does not say FL or TR
In short: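 Read-out is AlphaScreen luminescence using rabbit anti-p-MEK with protein A beads after EDTA stop, with IC50 fitted by non-linear regression. Reaction: Sf9-derived C-Raf plus biotinylated E. coli MEK1 K97R substrate, pH 7.5 Tris/MgCl2/DTT buffer, compound preincubated 60 min at room temperature.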

[2] = target: b-Raf (V600E) (Homo sapiens (Human), UniProt P15056, V600E); assay: In vitro Raf activity determination (Alpha Screen, phospho-MEK), b-Raf (V600E); format: biochemical; settings: ATP 10 μM, 60 min pre-incubation, 3 hours reaction
Sequence of b-Raf (V600E) (P15056 whole entry V600E): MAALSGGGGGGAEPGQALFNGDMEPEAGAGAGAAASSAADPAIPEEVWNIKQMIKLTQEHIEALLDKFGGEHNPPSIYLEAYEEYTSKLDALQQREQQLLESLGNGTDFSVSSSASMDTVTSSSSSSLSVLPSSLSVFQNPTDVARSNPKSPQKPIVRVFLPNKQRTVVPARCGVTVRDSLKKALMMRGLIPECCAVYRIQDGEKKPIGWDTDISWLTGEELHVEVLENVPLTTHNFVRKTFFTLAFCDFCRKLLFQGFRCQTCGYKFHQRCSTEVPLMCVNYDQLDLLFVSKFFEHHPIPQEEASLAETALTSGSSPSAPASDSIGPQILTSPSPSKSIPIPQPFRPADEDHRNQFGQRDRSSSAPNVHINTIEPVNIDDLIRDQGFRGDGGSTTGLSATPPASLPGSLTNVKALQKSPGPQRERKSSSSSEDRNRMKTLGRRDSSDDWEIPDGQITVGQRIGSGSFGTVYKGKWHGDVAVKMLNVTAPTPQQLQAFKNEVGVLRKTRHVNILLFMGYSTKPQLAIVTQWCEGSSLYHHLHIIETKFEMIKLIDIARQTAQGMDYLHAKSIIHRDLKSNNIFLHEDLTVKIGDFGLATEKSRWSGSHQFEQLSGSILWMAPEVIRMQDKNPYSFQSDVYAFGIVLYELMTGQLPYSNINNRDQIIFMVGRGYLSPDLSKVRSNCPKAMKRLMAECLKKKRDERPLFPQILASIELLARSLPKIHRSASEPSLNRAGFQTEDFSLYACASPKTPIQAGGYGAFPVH
Text: The activity of a compound according to the present invention can be assessed by well-known in vitro & in vivo methods. Raf inhibition data provided herein was obtained using the following procedures.
Sf9 cells co-expressing both proteins were lysed and subjected to immobilized nickel chromatography and eluted with Imidazole. A second column (StrepII binding column) was used and eluted with desthiobiotin. Protein Tags were removed using Prescission enzyme and the protein was further purified using a flowthrough step to remove tags.
Full length MEK1 with an inactivating K97R ATP binding site mutation is utilized as a RAF substrate. The MEK1 cDNA was subcloned with an N-terminal (his)6 tag into a vector for E. Coli expression. The MEK1 substrate was purified from E. Coli lysate by nickel affinity chromatography followed by anion exchange. The final MEK1 preparation was biotinylated (Pierce EZ-Link Sulfo-NHS-LC-Biotin) and concentrated.
The plate was incubated for 60 minutes at room temperature. […] The additions were carried out under dark conditions to protect the detection beads from light. A lid was placed on top of the plate and incubated for 1 hour at room temperature, after which the luminescence was read on a PerkinElmer Envision instrument.

Sequence of C-Raf FL (P04049 whole entry Y340E/Y341E): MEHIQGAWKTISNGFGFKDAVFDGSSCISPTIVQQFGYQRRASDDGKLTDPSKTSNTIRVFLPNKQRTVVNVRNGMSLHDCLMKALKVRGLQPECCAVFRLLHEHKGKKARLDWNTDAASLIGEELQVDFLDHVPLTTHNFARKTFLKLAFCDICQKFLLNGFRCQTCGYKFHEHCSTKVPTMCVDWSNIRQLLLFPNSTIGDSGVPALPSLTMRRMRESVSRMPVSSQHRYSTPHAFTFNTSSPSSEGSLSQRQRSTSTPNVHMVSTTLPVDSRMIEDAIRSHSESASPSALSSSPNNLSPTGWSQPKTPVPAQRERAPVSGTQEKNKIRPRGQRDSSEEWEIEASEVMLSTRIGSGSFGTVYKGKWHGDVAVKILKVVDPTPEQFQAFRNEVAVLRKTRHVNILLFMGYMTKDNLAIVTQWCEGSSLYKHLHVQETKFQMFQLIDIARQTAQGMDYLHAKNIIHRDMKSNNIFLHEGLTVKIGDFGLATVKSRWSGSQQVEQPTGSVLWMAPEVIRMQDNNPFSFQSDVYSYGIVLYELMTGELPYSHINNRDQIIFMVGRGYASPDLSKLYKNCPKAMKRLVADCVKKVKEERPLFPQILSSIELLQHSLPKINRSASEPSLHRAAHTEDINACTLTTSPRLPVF
Sequence of C-Raf FL (P63104 whole entry partner): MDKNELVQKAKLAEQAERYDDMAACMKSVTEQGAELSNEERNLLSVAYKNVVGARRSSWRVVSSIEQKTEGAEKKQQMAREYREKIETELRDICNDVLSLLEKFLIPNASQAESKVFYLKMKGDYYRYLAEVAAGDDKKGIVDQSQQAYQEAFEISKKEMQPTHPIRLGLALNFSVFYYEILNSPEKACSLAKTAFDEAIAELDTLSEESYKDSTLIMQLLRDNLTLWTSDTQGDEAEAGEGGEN

SMILES | IC50 [1] [nM] | IC50 [2] [nM]
COc1ncc(-c2cc(NC(=O)c3cc(C(F)(F)F)ccn3)ccc2C)cc1C1(O)COC1 [Example 84, N-(3-(5-(3-hydroxyoxetan-3-yl)-6-methoxypyridin-3-yl)-4-methylphenyl)-4-(trifluoromethyl)picolin-amide] | 0.351 | 2.21
COc1ncc(-c2cc(NC(=O)c3ccnc(C(C)(C)F)c3)cnc2C)cc1C1(O)COC1 [Example 76, 2-(2-fluoropropan-2-yl)-N-(5′-(3-hydroxyoxetan-3-yl)-6′-methoxy-2-methyl-[3,3′-bipyridin]-5-yl)isonicotinamide] | 3.93 | 22.8
COc1ncc(-c2cc(NC(=O)c3cc(C(C)(C)N)cc(C(F)(F)F)c3)ccc2C)cc1C1(CF)COC1 [Example 108, 3-(2-aminopropan-2-yl)-N-(3-(5-(3-(fluoromethyl)oxetan-3-yl)-6-methoxypyridin-3-yl)-4-methylphenyl)-5-(trifluoromethyl)benzamide] | 0.424 | 1.8
COc1ncc(-c2cc(NC(=O)c3ccnc(C(C)(C)F)c3)ccc2C)cc1C1(CF)COC1 [Example 104, N-(3-(5-(3-(fluoromethyl)oxetan-3-yl)-6-methoxypyridin-3-yl)-4-methylphenyl)-2-(2-fluoropropan-2-yl)isonicotinamide] | 0.128 | 0.417
COc1ncc(-c2cc(NC(=O)c3ccnc(C(C)(C)C#N)c3)ccc2C)cc1C1(O)COC1 [Example 72, 2-(2-cyanopropan-2-yl)-N-(3-(5-(3-hydroxyoxetan-3-yl)-6-methoxypyridin-3-yl)-4-methylphenyl)isonicotin-amide] | 1.04 | 4.2
CCOc1ncc(-c2cc(NC(=O)c3ccnc(C(C)(C)C#N)c3)ccc2C)cc1C1(CF)COC1 [Example 31, 2-(2-cyanopropan-2-yl)-N-(3-(6-ethoxy-5-(3-(fluoromethyl)oxetan-3-yl)pyridin-3-yl)-4-methylphenyl)isonicotin-amide] | 0.157 | 0.446
Cc1ncc(NC(=O)c2ccnc(C(C)(F)F)c2)cc1-c1cccc(C2COC2)c1 [Example 70, 2-(1,1-difluoroethyl)-N-(6-methyl-5-(3-(oxetan-3-yl)phenyl)pyridin-3-yl)isonicotinamide] | 1.59 | 12.9
Cc1ncc(NC(=O)c2cccc(C(F)(F)F)c2)cc1-c1cnc(OCCO)c(C2(F)COC2)c1 [Example 37, N-(5′-(3-fluorooxetan-3-yl)-6′-(2-hydroxyethoxy)-2-methyl-[3,3′-bipyridin]-5-yl)-3-(trifluoromethyl)benzamide] | 0.354 | 1.85
Cc1ccc(NC(=O)c2ccnc(C(C)(C)C#N)c2)cc1-c1cc(C2(C)COC2)c2nccn2n1 [Example 29, 2-(2-cyanopropan-2-yl)-N-(4-methyl-3-(8-(3-methyloxetan-3-yl)imidazo[1,2-b]pyridazin-6-yl)phenyl)isonicotinamide] | 0.637 | 4.95
CCOc1ncc(-c2cc(NC(=O)c3cc(C(C)(C)N)cc(C(F)(F)F)c3)ccc2C)cc1C1(O)COC1 [Example 120, 3-(2-aminopropan-2-yl)-N-(3-(6-ethoxy-5-(3-hydroxyoxetan-3-yl)pyridin-3-yl)-4-methylphenyl)-5-(trifluoromethyl)benzamide] | 2.2 | 10
COc1ncc(-c2cc(NC(=O)c3ccnc(C(C)(F)F)c3)cnc2C)cc1C1(O)COC1 [Example 77, 2-(1,1-difluoroethyl)-N-(5′-(3-hydroxyoxetan-3-yl)-6′-methoxy-2-methyl-[3,3′-bipyridin]-5-yl)isonicotinamide] | 3.57 | 24
COc1ncc(-c2cc(NC(=O)c3ccnc(C(F)(F)F)c3)ccc2C)cc1C1(CF)COC1 [Example 105, N-(3-(5-(3-(fluoromethyl)oxetan-3-yl)-6-methoxypyridin-3-yl)-4-methylphenyl)-2-(trifluoromethyl)isonicotin-amide] | 0.0915 | 0.323
COc1ncc(-c2cc(NC(=O)c3cc(C(C)(C)F)ccn3)cnc2C)cc1C1(F)COC1 [Example 93, N-(5′-(3-fluorooxetan-3-yl)-6′-methoxy-2-methyl-[3,3′-bipyridin]-5-yl)-4-(2-fluoropropan-2-yl)picolinamide] | 1.01 | 8.03
COc1ncc(-c2cc(NC(=O)c3ccnc(C(C)(C)F)c3)ccc2C)cc1C1(O)COC1 [Example 99, 2-(2-fluoropropan-2-yl)-N-(3-(5-(3-hydroxyoxetan-3-yl)-6-methoxypyridin-3-yl)-4-methylphenyl)isonicotin-amide] | 0.415 | 2.67
COc1cc(-c2cc(NC(=O)c3cccc(C(F)(F)F)c3)ccc2C)cc(C2COC2)c1 [Example 21] | 0.373 | 2.73
Cc1ncc(NC(=O)c2ccnc(C(C)(F)F)c2)cc1-c1cccc(C2(C)COC2)c1 [Example 68, 2-(1,1-difluoroethyl)-N-(6-methyl-5-(3-(3-methyloxetan-3-yl)phenyl)pyridin-3-yl)isonicotinamide] | 0.618 | 3.71
Cc1ncc(NC(=O)c2ccnc(C(F)(F)F)c2)cc1-c1cnc(OCCO)c(C2(F)COC2)c1 [Example 38, N-(5′-(3-fluorooxetan-3-yl)-6′-(2-hydroxyethoxy)-2-methyl-[3,3′-bipyridin]-5-yl)-2-(trifluoromethyl)isonicotin-amide] | 0.729 | 4.84
Cc1ccc(NC(=O)c2cccc(C(F)(F)F)c2)cc1-c1cnc(OC2CCOCC2)c(C2(O)COC2)c1 [Example 119, N-(3-(5-(3-hydroxyoxetan-3-yl)-6-((tetrahydro-2H-pyran-4-yl)oxy)pyridin-3-yl)-4-methylphenyl)-3-(trifluoromethyl)benzamide] | 0.176 | 0.808
Cc1ncc(NC(=O)c2cccc(C(F)(F)F)c2)cc1-c1cc(C2(F)COC2)c(=O)n(CC(O)CO)c1 (centres unmarked) [Example 45, N-(1′-(2,3-dihydroxypropyl)-5′-(3-fluorooxetan-3-yl)-2-methyl-6′-oxo-1′,6′-dihydro-[3,3′-bipyridin]-5-yl)-3-(trifluoromethyl)benzamide] | 121 | 1180
COc1ncc(-c2cc(NC(=O)c3ccnc(C(C)(C)F)c3)cnc2C)cc1C1(F)COC1 [Example 82, N-(5′-(3-fluorooxetan-3-yl)-6′-methoxy-2-methyl-[3,3′-bipyridin]-5-yl)-2-(2-fluoropropan-2-yl)isonicotinamide] | 1.13 | 3.73
COc1cc(-c2cc(NC(=O)c3ccnc(C(C)(C)C#N)c3)ccc2C)cc(C2COC2)c1 [Example 23, 2-(2-cyanopropan-2-yl)-N-(3′-methoxy-6-methyl-5′-(oxetan-3-yl)-[1,1′-biphenyl]-3-yl)isonicotinamide] | 25000 | 25000
CCOc1ncc(-c2cc(NC(=O)c3ccnc(C(C)(C)F)c3)cnc2C)cc1C1(CF)COC1 [Example 131, N-(6′-ethoxy-5′-(3-(fluoromethyl)oxetan-3-yl)-2-methyl-[3,3′-bipyridin]-5-yl)-2-(2-fluoropropan-2-yl)isonicotinamide] | 0.31 | 1.3
Cc1ccc(NC(=O)c2ccnc(C(C)(F)F)c2)cc1-c1cnc(-c2cnn(C)c2)c(C2(O)COC2)c1 [Example 144, 2-(1,1-difluoroethyl)-N-(3-(5-(3-hydroxyoxetan-3-yl)-6-(1-methyl-1H-pyrazol-4-yl)pyridin-3-yl)-4-methylphenyl)isonicotin-amide] | 0.364 | 1.67
Cc1ccc(NC(=O)c2ccnc(C(C)(C)C#N)c2)cc1-c1cccc(C2COC2)c1 [Example 28, 2-(2-cyanopropan-2-yl)-N-(6-methyl-3′-(oxetan-3-yl)-[1,1′-biphenyl]-3-yl)isonicotinamide] | 25000 | 25000
COc1ncc(-c2cc(NC(=O)c3ccnc(C(F)F)c3)ccc2C)cc1C1(O)COC1 [Example 98, 2-(difluoromethyl)-N-(3-(5-(3-hydroxyoxetan-3-yl)-6-methoxypyridin-3-yl)-4-methylphenyl)isonicotin-amide] | 1.11 | 13.1
COc1ncc(-c2cc(NC(=O)c3cc(C(C)(C)N)cc(C(F)(F)F)c3)ccc2C)cc1C1(F)COC1 [Example 107, 3-(2-aminopropan-2-yl)-N-(3-(5-(3-fluorooxetan-3-yl)-6-methoxypyridin-3-yl)-4-methylphenyl)-5-(trifluoromethyl)benzamide] | 0.725 | 2.96
COc1ncc(-c2cc(NC(=O)c3cc(C(C)(C)F)ccn3)cnc2C)cc1C1(O)COC1 [Example 94, 4-(2-fluoropropan-2-yl)-N-(5′-(3-hydroxyoxetan-3-yl)-6′-methoxy-2-methyl-[3,3′-bipyridin]-5-yl)picolinamide] | 4.24 | 31.8
COc1ncc(-c2cc(NC(=O)c3cc(C(C)(F)F)ccn3)cnc2C)cc1C1(O)COC1 [Example 91] |  | 13
COc1ncc(-c2cc(NC(=O)c3cc(C(C)(F)F)ccn3)ccc2C)cc1C1(F)COC1 [Example 89, 4-(1,1-difluoroethyl)-N-(3-(5-(3-fluorooxetan-3-yl)-6-methoxypyridin-3-yl)-4-methylphenyl)picolinamide] |  | 1.19
